The numbers were not newly measured in patent US20260125680A1, “COMPOSITIONS AND METHODS FOR IMMUNE CHECKPOINT INHIBITION” (The General Hospital Corporation, priority 2018, published 2026), which cites them from elsewhere.

One data set has as its system pancreatic cancer. The conditions noted are these: monotherapy.
A further data set relates to bladder cancer. Particulars: confirmatory trial.

As to Ipilimumab: anti-CTLA-4, the response entry in the data set on pancreatic cancer is “ineffective with no responders”.
For “atezolizumab: FDA approved PD-L1 inhibitor”, the “primary endpoint of overall survival” value in the data set with bladder cancer is “failed to achieve its primary endpoint”.
